Test results as given in paper PMC9503608, “An Insight into Symmetrical Cyanine Dyes as Promising Selective Antiproliferative Agents in Caco-2 Colorectal Cancer Cells” (Molecules, 2022).

What was measured:
Caco-2 cells [1] = experiment: Cell cycle distribution by propidium iodide staining and flow cytometry; type: cell-based, human; settings: dye 12 and 5-FU 10 µM 72 h, sorbitol 600 mM 24 h, versus untreated cells
Experimental: (§1) The apoptosis occurrence and influence of the dye 12 on the cell cycle were evaluated using propidium iodide (PI) staining and flow cytometry, as described by Riccardi and Nicolleti. After the near confluency of the culture, trypsinisation, and counting, Caco-2 cells were seeded (2 mL, 3 × 10^4 cells/mL) in 6-well plates. After 48 h of adherence, the cells were treated with the test solutions (3 mL and 5 mL for negative control) and incubated for 72 h. Untreated cells were used as the negative control, and sorbitol and 5-FU [56] were used as positive controls for the apoptosis and cell cycle distribution studies, respectively. After incubation, the supernatant was collected and the cells were washed with PBS and combined with the cells harvested using the trypsin treatment. This cell suspension was maintained on ice and centrifugated, and then the pellet was resuspended in 0.5 mL of PBS. The cells were fixed by adding 4.5 mL of 70% ethanol cooled at −20 °C and were stored at the same temperature. For the cytometry analysis, PBS was added to the fixed cells before centrifugation, and then the ethanolic supernatant was removed. The pellet was resuspended in 0.5 mL of PBS and 0.5 mL of DNA extraction (192 mL of 0.2 M sodium phosphate and 8 mL of […], pH 7.8) was added. After incubation for 5 min, the cells were centrifuged, the supernatant was removed, and the pellet resuspended in 0.3 mL of staining solution (20 µg/mL of PI and 0.2 mg/mL of DNase-free RNase in PBS). Using a FACSCalibur flow cytometer and the 488 nm laser line, a minimum of 20,000 events were recorded. Acquisition and apoptosis analysis was performed using BD CellQuestTM Pro 4.0.2 Software. Cell cycle analysis was performed with ModFit LT 5.0.9 software. To exclude debris and necrotic cells, events with a lower diameter (forward scatter; FCS) and reduced PI fluorescence (FL3) than the hypodiploid apoptotic cells were eliminated. Two independent experiments were performed.

Caco-2 cells [2] = experiment: Apoptosis by propidium iodide staining and flow cytometry; type: cell-based, human
Experimental: as §1

[3] = tested on: MCF-7 breast adenocarcinoma cell line; experiment: MTT cell viability assay, MCF-7; type: cell-based, human; settings: Homo sapiens; for viability at 10 µM: MCF7, 72 h, single concentration of 10 µM, 72 h, mean ± SD, read-out: cell viability percentage in relation with control, MCF-7
Experimental: (§2) Caco-2, MCF-7, PC-3, and NHDF cell lines were obtained from the American Type Culture Collection (ATCC) and maintained in 75 cm^2 culture flasks in a humidified atmosphere at 37 °C with 5% carbon dioxide using a LEEC Culture Safe Precision CO2 Incubator. The culture media was renewed every two to three days. The NHDF cell line was cultured in Roswell Park Memorial Institute (RPMI) medium supplemented with 10% of inactivated fetal bovine serum (FBS), 2 mM of L-glutamine, 10 mM of 4-(2-hydroxyethyl)-1-piperazineethanesulfonic acid (HEPES), 1 mM of sodium pyruvate, and 1% of antibiotic/antimycotic mixture (Ab; 10,000 U/mL of penicillin G, […] of streptomycin, and 25 µg/mL of amphotericin B). The PC-3 cell line was also cultured in RPMI 1640 medium supplemented with 10% inactivated FBS and 1% of an antibiotic mixture (Sp; 10,000 U/mL of penicillin G and […] of streptomycin). The Caco-2 and MCF-7 cell lines were grown in Dulbecco’s Modified Eagle Medium (DMEM). Caco-2 was supplemented with 20% of inactivated FBS and 1% of Sp. On the other hand, the MCF-7 medium was complemented with 10% of inactivated FBS and 1% of Ab. All manipulations were performed in a Labculture Class II A2 Biological Safety Cabinet.
(§3) After the near confluency of cultures, cells were detached with a solution of 0.125 g/L trypsin and 0.02 g/L ethylenediaminetetracetic acid (EDTA), counted using the trypan blue method, resuspended, and seeded in 96-well culture plates (100 µL, 2 × 10^4 cells/mL). Following 48 h of adherence, cells were treated with the test solutions and incubated for 72 h. This incubation, as well as the solution manipulations, were performed in an environment protected from light. After the incubation, the medium was replaced with a fresh incomplete culture medium (without FBS and Ab or Sp) and MTT solution (5 mg/mL in phosphate buffer saline (PBS)). After additional incubation for 4 h, the MTT medium was removed, formazan crystals were dissolved in DMSO, and the optical density of each well was measured at 570 nm using a microplate spectrophotometer Bio-Rad xMark. Untreated cells were used as a negative control and 5-FU as the positive control. The results were expressed as the relative cell proliferation relative to the negative control cells. […] To determine the IC50 values, Caco-2, MCF-7, PC-3, and NHDF cells were exposed to increasing concentrations between 0.001 and 100 μM.

[4] = MTT cell viability assay, NHDF; type: cell-based, human; settings: human, normal human dermal fibroblasts (NHDF), single concentration of 10 µM, 72 h, mean ± SD; read-out: cell viability percentage in relation with control, NHDF
Experimental: as §2, §3

[5] = tested on: normal human dermal fibroblasts (NHDF); experiment: MTT cell viability assay, NHDF; type: cell-based; settings: Homo sapiens, NHDF, 72 h, 72 h of incubation, MTT, protected from light
Experimental: as §2, §3

[6] = tested on: PC-3 prostate adenocarcinoma cell line; experiment: MTT cell viability assay, PC-3; type: cell-based, human; settings: for viability at 10 µM: single concentration of 10 µM, mean ± SD, read-out: cell viability percentage in relation with control, PC-3
Experimental: as §2, §3

Caco-2 cells [7] = experiment: Morphological analysis by inverted microscopy; type: cell-based, human; settings: 10 µM, 72 h, 20 or 40× magnification, versus untreated cells
Experimental: After the near confluency of the culture, trypsinisation, and counting, Caco-2 cells were seeded (3 mL; 3 × 10^4 cells/mL) in 35 mm cell culture dishes with treatment for the tissue culture. Following 48 h of adherence, the cells were treated with the test solutions and incubated for 72 h in an environment protected from light. At every 24 h, cellular morphology was verified in an Olympus CKX41 SF inverted microscope with a 10, 20, or 40× objective, and the analysis was based on comparing the cells with and without treatment. Cell imaging was captured using a DC6V Olympus digital camera coupled to the microscope.

[8] = MTT cell viability assay, Caco-2; type: cell-based, human; settings: human, Caco-2, Caco-2 versus NHDF, 72 h; read-out: SI Caco-2 (selectivity index, cancer versus NHDF)
Experimental: as §2, §3

[9] = tested on: Caco-2 colorectal adenocarcinoma cell line; experiment: MTT cell viability assay, Caco-2; type: cell-based, human; settings: for IC50: 72 h of incubation, MTT, protected from light; for viability at 10 µM: single concentration of 10 µM, mean ± SD, read-out: cell viability percentage in relation with control, Caco-2
Experimental: as §2, §3

[10] = Homo sapiens, Caco-2, 72 h, 72 h

OC[C@@H](O)[C@@H](O)[C@H](O)[C@@H](O)CO [sorbitol, reference compound]
effect on cell cycle distribution (Caco-2 cells [1]): did not significantly affect the Caco-2 cell cycle
apoptosis induced (percent of cells) (Caco-2 cells [2]; Caco-2, dye 12 10 µM 72 h, sorbitol 600 mM 24 h): about 28%

O=c1[nH]cc(F)c(=O)[nH]1 [Dye 5-FU, 5-fluorouracil, reference compound]
viability at 10 µM [3]: 16 ± 1.8%
IC50 ([3]; MCF7, 72 h of incubation, MTT, protected from light): 1.24 µM
effect on cell cycle distribution (Caco-2 cells [1]): significant increase in the rate of Caco-2 cells in the S-phase
viability at 72 h, 10 µM [4]: 12.7 ± 3.99%
IC50 [5]: 6.17 µM
viability at 10 µM ([6]; Homo sapiens, 72 h, 72 h): 11.9 ± 2.1%
IC50 ([6]; Homo sapiens, 72 h of incubation, MTT, protected from light): 1.72 µM
SI PC-3 (selectivity index, cancer versus NHDF) ([6]; PC-3 versus NHDF, 72 h): 3.6
morphological changes of Caco-2 cells (Caco-2 cells [7]): cell size increase with an enlarged and well-defined nucleus
selectivity ratio at 72 h [8]: 3.6
IC50 ([9]; Homo sapiens, Caco-2, 72 h): 1.7 µM
viability at 10 µM [9, 10]: 25.7 ± 1.02%
increase in apoptotic cells relative to untreated cells (Caco-2 cells [2]; Caco-2, 10 µM, 72 h): approximately 10%

CCCCCCCCCCN1C(=Cc2sc3ccccc3[n+]2CCCCCCCCCC)Sc2ccccc21.[I-] [Dye 11, 3-Decyl-2-((3-decylbenzo[d]thiazol-2(3H)-ylidene)methyl)benzo[d]thiazol-3-ium iodide]
viability at 10 µM [3]: 0.1 ± 0.69%
viability at 72 h, 10 µM [4]: 0.15 ± 0.38%
IC50 [5]: 0.72 µM
viability at 10 µM ([6]; Homo sapiens, 72 h, 72 h): 0.94 ± 0.11%
melting point: 232 to 233 °C
selectivity ratio at 72 h [8]: 0.6
IC50 ([9]; Homo sapiens, Caco-2, 72 h): 1.24 µM
viability at 10 µM [9, 10]: 0.66 ± 0.44%

CCCCCN1C(=Cc2sc3ccccc3[n+]2CCCCC)Sc2ccccc21.[I-] [Dye 10, 3-Pentyl-2-((3-pentylbenzo[d]thiazol-2(3H)-ylidene)methyl)benzo[d]thiazol-3-ium iodide]
viability at 10 µM [3]: 0.87 ± 2.53%
viability at 72 h, 10 µM [4]: 0.1 ± 0.36%
IC50 [5]: 0.67 µM
viability at 10 µM ([6]; Homo sapiens, 72 h, 72 h): 0.97 ± 0.26%
melting point: 164 to 166 °C
selectivity ratio at 72 h [8]: 0.6
IC50 [9]: 1 µM
SI Caco-2 (selectivity index, cancer versus NHDF) ([9]; Caco-2 versus NHDF, 72 h): 0.7
IC50 ([9]; Homo sapiens, Caco-2, 72 h): 1.24 µM
viability at 10 µM [9, 10]: 1.02 ± 0.42%

CCCCCN1C(=CC=C2CCCC(C=Cc3sc4ccccc4[n+]3CCCCC)=C2Cl)Sc2ccccc21.[I-] [Dye 17, 2-(2-(2-Chloro-3-(2-(3-pentylbenzo[d]thiazol-2(3H)-ylidene)ethylidene)cyclohex-1-en-1-yl)vinyl)-3-pentylbenzo[d]thiazol-3-ium iodide]
viability at 10 µM [3]: 11.2 ± 3.11%
viability at 72 h, 10 µM [4]: 2.26 ± 0.1%
IC50 [5]: 0.91 µM
viability at 10 µM ([6]; Homo sapiens, 72 h, 72 h): 0.43 ± 0.26%
melting point: 227 to 228 °C
selectivity ratio at 72 h [8]: 0.4
IC50 ([9]; Homo sapiens, Caco-2, 72 h): 2.06 µM
viability at 10 µM [9, 10]: 0.24 ± 0.17%
